Source: patent publication US4676822A, “Fluid fertilizers containing thiophosphoryl triamide” (Tennessee Valley Authority, priority 1986, dated 1987)
“And” between values parts separate entries of the source, which are not always exact repeats. Equal values may be shown once. Read-outs that look alike come from different tables or passages of the source.

Legend:
[1] = compared with PPDA; cited from earlier work
[2] = 25° C., water partial pressure 12.73 mm of Hg; cited from earlier work
urease [3] = conditions: prior art; cited from earlier work
urease [4] = assay: Urease inhibition tests with TPTA and PPDA in fluid fertilizers, banded soil system (urease-active Hastings silt loam); type: biochemical; conditions: for average % urea unhydrolyzed, 3 days / % urea unhydrolyzed, 3 days: 3 days incubation at 25° C.; for average % urea unhydrolyzed, 3 days / average % urea unhydrolyzed, 6 days: average of A and B samples; for % urea unhydrolyzed, 3 days / % urea unhydrolyzed, 6 days: single sample; for average % urea unhydrolyzed, 6 days / % urea unhydrolyzed, 6 days: 6 days incubation at 25° C.
Protocol: Samples of UAN (31-0-0), 1 g, and (36-0-0), 0.66 g containing approximately 0.38 g urea and 0.041 g of TPTA were prepared by dissolving solid TPTA in 31-0-0 and 36-0-0 of the compositions shown in Table I, supra. Identical samples containing PPDA and without either inhibitor were prepared to serve as references for purposes of data comparison.
Urease-active soil (Hastings silt loam) was moistened to a moisture content of 20 percent and preincubated at room temperature for two days. Plexiglass containers (6×6×6 cm) were one-half filled with soil and packed to a bulk density of 1.0 g/cm^3. The 31-0-0 and 36-0-0 samples containing TPTA and PPDA as well as samples containing no inhibitor were distributed evenly in a narrow band 6 cm along the soil surface. The containers were filled with soil and again packed to a bulk density of 1.0 g/cm^3. The containers were incubated at 25° C. for the desired reaction period. After incubation the soil from each container was thoroughly mixed, and a 10-g sample was extracted with 100 mL of 2M KCl containing 5 ppm phenylmercuric acetate to prevent urea hydrolysis during handling [L. A. Douglass and J. M. Bremner, Soil Sci. Soc. Am. Proc. 34, 859-862 (1970)]. The urea in the extracts was determined colorimetrically as a measure of unhydrolyzed urea. The results of three-day and six-day incubation tests are illustrated in Table II infra; and as noted supra, plotted in FIG. 1.

[5] = solid mixtures with urea, 25° C.; cited from earlier work
[6] = 25° C., cited from earlier work; for first-order reaction half-life: UAN (31-0-0)

For `NP(N)(N)=O` [PTA, phosphoryl triamide], the “stability in urea melt” value [1] is given as “much less stable in urea melt than PPDA” and the “reaction half-life in solid mixtures with urea” value [2] is given as 4.3 h.

In the case of `NP(N)(=O)O` [DAPA, diamidophosphoric acid], the “urease inhibition (in words)” value (urease [3]) is listed as “are urease inhibitors”.

In the case of `NP(N)(=O)Oc1ccccc1` [PPDA, phenyl phosphorodiamidate, reference compound], the “average % urea unhydrolyzed, 3 days” value (urease [4]; UAN (31-0-0)) is reported as 83.36%, the “% urea unhydrolyzed, 3 days” value (urease [4]; UAN (31-0-0)) is reported as 83.64% and 83.09% and the “average % urea unhydrolyzed, 6 days” value (urease [4]; UAN (31-0-0)) is reported as 12.61%. The “% urea unhydrolyzed, 6 days” value (urease [4]; UAN (31-0-0)) was 14.03% and 11.20%, the “average % urea unhydrolyzed, 3 days” value (urease [4]; UAN (36-0-0)) was 85.73% and 84% and the “% urea unhydrolyzed, 3 days” value (urease [4]; UAN (36-0-0)) was 86.22% and 81.24%. For the same compound, the “average % urea unhydrolyzed, 6 days” value (urease [4]; UAN (36-0-0)) was 11.32% and 11%, the “% urea unhydrolyzed, 6 days” value (urease [4]; UAN (36-0-0)) was 12.10% and 10.53% and the “half-life of PPDA in mixtures with urea” value [5] was 0.9 years. For the same compound, the first-order reaction half-life ([6]; pH 6.46) was 146 h, the first-order reaction half-life ([6]; pH 8.14) was 28.8 h and the decomposition rate constant ([6]; UAN (36-0-0) saturated with PPDA) was 10.2 percent decomposition per day. For the same compound, the decomposition rate constant ([6]; UAS (29-0-0-5S) saturated with PPDA) was 20.5 percent decomposition per day and the “urease inhibition (in words)” value (urease [3]) was “extremely potent inhibitor of urease activity”.

For `NP(=O)(O)O` [MAPA, monoamido phosphoric acid], the “urease inhibition (in words)” value (urease [3]) is listed as “are urease inhibitors”.
